Results from PMC12590632, “Identification and characterization of a nonpeptidic cyclophilin ligand with antiviral activity against feline and porcine α-coronaviruses” (Veterinary Research, 2025).

Key:
[1] = target: T1, Human cyclophilin A (Homo sapiens, UniProt P62937); assay: PPIase enzyme assay (chymotrypsin-coupled); type: biochemical; conditions: 20 °C, mean ± SD of two or more experiments
T1 construct: made in house
Protocol: Human cyclophilin A was purified, and its PPIase activity in the absence or presence of SMCypI was measured as previously described. Briefly, cyclophilin A PPIase activity was measured at 20 °C using the standard chymotrypsin-coupled assay. The assay buffer (25 mM HEPES and 100 mM NaCl, pH 7.8) and purified cyclophilin A were precooled to 4 °C. Then, 5 µL of 50 mg/mL chymotrypsin in 1 mM HCl was added (final reaction volume of 500 µL). The reaction was initiated by adding the peptide substrate Suc-Ala-Ala-Cis-Pro-Phe-pNA to a LiCl/TFE solution with rapid inversion. The absorbance of p-nitroaniline was monitored at 390 nm until the reaction was complete, i.e., when the absorbance reached a plateau (1 min). The final concentration of LiCl in the assay was 20 mM, and TFE was present at a concentration of 4% (v/v). The absorbance was measured every second using a spectrophotometer (BioMate3, Thermo Fischer Scientific). For the inhibition assessment, 5 µL of the tested compound in dimethyl sulfoxide (DMSO) was added to the cyclophilin A solution in the assay buffer. CsA (Sigma‒Aldrich, Saint-Louis, USA) was used as a positive control for PPIase inhibition in all measurements. IC50 values were calculated from dose‒response curves and reported as the mean ± standard deviation of two or more experiments.

[2] = test system: TGEV (Purdue strain) in PK15 cells; assay: TGEV infection in PK15 cells, immunofluorescence, infected area; type: cell-based, transmissible gastroenteritis virus; conditions: for Effect on TGEV infection: 12.5 µM
Protocol: (§1) CRFK, PK15 and Vero cells were plated in a 96-well plate at a density of 2 × 10^4 cells/well and incubated for 18 h at 37 °C. The cells were infected with FIPV (MOI of 1), TGEV (MOI of 0.5) or PEDV (MOI of 0.5). Viral inoculation was performed in the presence of F83233, F832 and F833 at concentrations ranging from 0.1 μM to 25 μM for FIPV assays and from 0.78 µM to 12.5 µM for TGEV and PEDV. Two hours after viral inoculation, fresh medium supplemented with the same concentrations of inhibitors was added. The antiviral effect was measured at the peak of viral replication, i.e., after 24 h for FIPV and PEDV infection and after 48 h for TGEV infection. The experiments were repeated twice, and each condition was tested in duplicate or triplicate in independent wells.
(§2) Fixed PK15 and Vero cells were processed similarly. TGEV infection was detected with a homemade anti-spike antibody (called 51.13 [46, 47], dilution 1/10 000) from a mouse and with an anti-mouse AlexaFluor-555-conjugated secondary antibody. PEDV infection was detected with polyclonal antibodies from pigs (a gift from Drs. Y. Blanchard and M. Contrant, Anses, Ploufragan, dilution 1/300) and with an anti-pig AlexaFluor-488-conjugated secondary antibody (SouthernBiotech, Birmingham, USA). […] (J2 from Cell Signaling Technology, Danvers, USA, dilution 1/1000), followed by incubation with an anti-mouse AlexaFluor-555-conjugated secondary antibody. The cells were counterstained with DAPI (Sigma‒Aldrich, final concentration of 1 µg/mL). Secondary antibodies (with the exception of the anti-pig at a 1/400 dilution) were used at a 1/800 dilution and were obtained from Molecular Probes (Thermo Fischer Scientific).
(§3) For each concentration of F832, F833 or F83233, 3 to 5 pictures were randomly taken with an epifluorescence microscope (Zeiss, Oberkochen, Germany) with a 10X objective. The area of staining was measured with ImageJ. The number of nuclei/syncytia (defined as PEDV-positive cells with > 4 nuclei) in PEDV-infected cells was manually counted using ImageJ. Blind analysis was performed to avoid bias.

[3] = test system: FIPV (strain 79-1146) in CRFK cells; assay: FIPV viral titre in cell supernatants, dose response in CRFK cells; type: cell-based, feline infectious peritonitis virus; conditions: for Decrease of FIPV virus titre: 25 µM
Protocol: (§4) CRFK cells were plated in a 96-well plate at a density of 2 × 10^4 cells/well and incubated for 24 h. Serial tenfold dilutions (10^–1 to 10^–6) of viral supernatants, obtained with or without cyclophilin inhibitors, were added to CRFK cells in eight replicate wells per dilution. The viral inoculum was removed 2 h after infection, and the cells were incubated for 24 h at 37 °C. The cells were fixed via sequential incubation in absolute ethanol followed by 70% ethanol (10 min each at room temperature). FIPV antigens were then detected by immunofluorescence using ascitic fluid from an infected cat (dilution 1/500), followed by incubation with an anti-cat AlexaFluor-488-conjugated secondary antibody (Jackson ImmunoResearch, West Grove, USA). Wells containing fluorescent cells were counted. The 50% infectious dose (ID50) was calculated using the Spearman–Karber method. The results are presented as the means of ≥ 2 experiments performed in triplicate.
as §1

[4] = test system: CRFK cells; assay: Cytotoxicity assay (CellTiter-Glo); type: cell-based, feline; conditions: 24 h, up to 25 µM
Protocol: The cells were plated in a 96-well plate at a density of 2 × 10^4 cells/well and incubated for 24 h. The culture medium was replaced with serial dilutions of culture medium containing three replicates of different concentrations (ranging from 0.9 μM to 25 μM) of F83233, F832 and F833 molecules, DMSO or media alone as controls. The plates were incubated for 24 h at 37 °C. Cytotoxicity was evaluated with the CellTiter-Glo Cell Viability Assay Kit (Promega, Madison, USA).

[5] = test system: PEDV (CV777 strain) in Vero cells; assay: PEDV infection in Vero cells, immunofluorescence, infected area; type: cell-based, porcine epidemic diarrhoea virus; conditions: for Antiviral potency against PEDV: MOI 0.5, 24 h, 0.78-12.5 µM
Protocol: as §1, §2, §3

[6] = test system: FIPV in CRFK cells; assay: Time-of-drug addition assay; type: cell-based, feline infectious peritonitis virus
Protocol: as §4
CRFK cells were plated in a 96-well plate at a density of 2 × 10^4 cells per well and incubated for 24 h. The cells were infected with FIPV at an MOI of 1 in the presence of 5 µM F83233 (for 0 h post-infection (pi)) or in the presence of DMSO (for the other time points). After viral inoculation, the culture medium was removed, fresh medium containing 5 μM F83233 was added at 1, 3, 6, 9 or 18 h post-infection, and infection was stopped at 24 h post-inoculation. The cell supernatants were stored at −80 °C prior to end-point dilution to measure the effect of F83233 on FIPV infectivity under different conditions. The experiment was repeated three times, and each condition was tested in triplicate.

[7] = test system: FIPV (strain 79-1146) in CRFK cells; assay: SMCypI screening for FIPV infection, viral titre by end-point dilution; type: cell-based, feline infectious peritonitis virus; conditions: 50 µM SMCypI, MOI 1, 24 h
Protocol: CRFK cells were plated in a 96-well plate at a density of 2 × 10^4 cells/well and incubated for 24 h. The cells were infected for 1 h with FIPV at a multiplicity of infection (MOI) of 1 in the presence of 50 µM or 10 µM SMCypI or CsA, respectively. The inoculum was removed after 1 h, and inhibitors (50 μM SMCypI or 10 μM CsA) were added for 24 supplemental hours. The supernatants were collected and stored at −80 °C prior to the end-point dilution assays.
as §4, with “The results are presented as the means of ≥ 2 experiments performed in triplicate.” left out

[8] = test system: PEDV (CV777 strain) in Vero cells; assay: PEDV-induced syncytium formation and dsRNA staining in Vero cells; type: cell-based, porcine epidemic diarrhoea virus; conditions: 12.5 µM
From the text: as §2, §3

[9] = 5 µM F83233, FIPV MOI 1, CRFK cells

T1 sequence (P62937 whole entry): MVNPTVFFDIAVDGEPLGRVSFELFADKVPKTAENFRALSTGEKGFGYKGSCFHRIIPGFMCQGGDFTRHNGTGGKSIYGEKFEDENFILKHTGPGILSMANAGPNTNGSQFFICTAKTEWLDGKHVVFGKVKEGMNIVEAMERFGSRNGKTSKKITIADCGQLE

| SMILES | IC50 [1] [nM] | Effect on TGEV infection ([2]; MOI 0.5, 48 h) | Decrease of FIPV virus titre ([3]; 24 h) | Cytotoxicity [4] | Antiviral potency against PEDV [5] | Effect on TGEV-infected cells ([2]; 6.25 µM and 12.5 µM, 48 h) | Concentration at which active against TGEV ([2]; MOI 0.5, 48 h) [µM] | Reduction in FIPV viral titre ([3]; 5 µM, 24 h) | FIPV viral reduction ([3]; 10 µM) | Maximal inhibitory effect, decrease of FIPV titre ([3]; 12.5 µM, 24 h) | Decrease of antiviral efficiency between addition at 1 and 3 h post-infection [6, 9] | Time of addition giving the maximal antiviral effect [6, 9] | Inhibition of FIPV titre compared with DMSO control ([6]; 5 µM F83233 added 18 h post-infection) | Inhibition of FIPV titre [7] | Double-strand RNA staining (viral genome replication) in syncytia [8] | Size of PEDV-induced syncytia and number of nuclei per syncytium [8] | Effect on PEDV infection ([5]; 3.125 µM, 24 h) |
| --- | --- | --- | --- | --- | --- | --- | --- | --- | --- | --- | --- | --- | --- | --- | --- | --- | --- |
| O=C(NCc1ccc2c(c1)CCCN2)NC(C(=O)N1CCCC1c1cccc2ccsc12)c1ccccc1 (stereo not shown) [Compound F832] | 400 ± 90 | no significant effect | ≈ 0.5 Log10 | low cytotoxicity | modest antiviral potency |  |  |  |  |  |  |  |  |  |  |  |  |
| Nc1ccc(CNC(=O)NC(C(=O)N2CCCC2c2cccc3ccsc23)C2CCCCC2)cc1 (stereo not shown) [Compound F833] | 600 ± 100 | no significant effect | ≈ 0.5 Log10 | low cytotoxicity | modest antiviral potency |  |  |  |  |  |  |  |  |  |  |  |  |
| O=C(NCc1ccc2c(c1)CCCN2)NC(C(=O)N1CCCC1c1cccc2ccsc12)C1CCCCC1 (stereo not shown) [Compound F83233] | 700 ± 500 |  | ≈ 3 Log10 | low cytotoxicity |  | almost complete disappearance of infected cells | 1.6 | approximately 2 Log10 | approximately 3 Log10 | 3–4 Log10 | more than 1 Log10 | simultaneously with the virus or 1 h later | ≈ 1 Log10 | more than 4 Log10 | markedly impacted | drastically decreased | important reduction in infection |
